Assays:
[1] = system: human reconstructed epidermis model EpiDerm; assay: Extended skin irritation test in reconstructed human epidermis EpiDerm; format: cell-based; conditions: 1.0% in 50% PEG (10 μL)
Description: Extended Skin Irritation Tests on Reconstructed Human Epidermis-Exposure Time Extended to 7 Days.
In order to perform extended skin irritation (safety) tests on the reconstructed human epidermis, the exposure time to the tested compounds was extended to 2 and 7 days in the human reconstructed epidermis model EpiDerm™ from MatTek. The epidermis was cultured according to the manufacturer's recommendations, using appropriate multi-well plates and culture media. Solutions of the tested compounds were applied to the epidermis using a positive displacement pipette and distributed using a sterile glass bulb headed Pasteur pipette. […] The epidermis was cultured in an incubator ensuring appropriate humidity, temperature (37° C.) and CO2 concentration (5%). The medium was replaced daily. After an appropriate incubation time, i.e. 2 days or 7 days, the epidermis was rinsed with sterile DPBS and incubated with MTT (Thiazolyl Blue Tetrazolium bromide) solution at 37° C. for 3 hours. After this time, a purple color of formazan was observed, correlated with tissue viability. […] Moreover, in the medium collected after the first 24 hours of EpiDerm epidermis culture, the level of interleukin 1α (Il-1α), which is a mediator of inflammation, was determined. Its level correlates with the unfavorable (irritating) effect of the tested substances on the epidermis. The level of IL-1α was determined using the Cayman Elisa test.

[2] = system: S. typhimurium TA1535; assay: Ames microplate test, TA1535;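 further: bacteria exposed 90 min at 37 °C in exposure medium, then 48 h in indicator medium in 384-well plates, yellow (revertant) wells counted per condition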
Description: (§1) The study used the Ames microplate test (Ames MPF™ Penta 2 by Xenometrix, Allschwil, Switzerland). Growth medium, exposure medium, indicator medium, positive controls, hepatic microsomal fraction, NADP, glucose-6-phosphate, Salmonella typhimurium and Escherichia coli strains were components of the purchased experimental kit. Bacteria were grown overnight in growth medium. They were then exposed to the test compound at the appropriate concentration in exposure medium without or with the rat microsomal fraction S9 in 24-well plates for 90 min at 37° C. with shaking. Then, indicator medium was added to the wells and pipetted into 384-well plates, which were incubated for 48 hours at 37° C. without shaking. Results were assessed by counting the wells in which the medium turned yellow for each experimental condition.

[3] = system: S. typhimurium TA98; assay: Ames microplate test, TA98; format: cell-based, Salmonella typhimurium
Description: Bacteria were grown overnight in growth medium.

[4] = system: S. typhimurium TA100; assay: Ames microplate test, TA100; format: cell-based, Salmonella typhimurium
Description: as §1

[5] = system: E. coli WP2; assay: Ames microplate test, E. coli WP2;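 further: bacteria exposed to compound for 90 min at 37 °C in 24-well plates, then transferred with indicator medium to 384-well plates and incubated 48 h before yellow well counting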
Description: as §1

O=C(/C=C/c1ccccc1)NCCCCCCO [H-425/21, (E)-N-(6-hydroxyhexyl)cinnamic acid amide]
Viability [% of control, mean ± SD] 2 days [1]: 99.75 ± 15.49 % of control
Viability [% of control, mean ± SD] 7 days [1]: 104.01 ± 1.11 % of control
Il-1α in culture medium ([1]; medium after first 24 hours): 60.29 ± 1.08 pg/mL
Increase in the number of yellow wells compared to the reference level, TA1535 ([2]; 0.5 mM, + S9): 0.54
Increase in the number of yellow wells compared to the reference level, TA1535 ([2]; 0.5 mM, without S9): 1.04
Increase in the number of yellow wells compared to the reference level, TA1535 ([2]; 1.0 mM, + S9): 0.40
Increase in the number of yellow wells compared to the reference level, TA1535 ([2]; 1.0 mM, without S9): 0.59
Increase in the number of yellow wells compared to the reference level, TA1535 ([2]; 2.0 mM, + S9): 0.94
Increase in the number of yellow wells compared to the reference level, TA1535 ([2]; 2.0 mM, without S9): 0.45
Increase in the number of yellow wells compared to the reference level, TA98 ([3]; 0.5 mM, + S9): 0.42
Increase in the number of yellow wells compared to the reference level, TA98 ([3]; 0.5 mM, without S9): 0.27
Increase in the number of yellow wells compared to the reference level, TA98 ([3]; 1.0 mM, + S9): 0.42
Increase in the number of yellow wells compared to the reference level, TA98 ([3]; 1.0 mM, without S9): 0.54
Increase in the number of yellow wells compared to the reference level, TA98 ([3]; 2.0 mM, + S9): 0.63
Increase in the number of yellow wells compared to the reference level, TA98 ([3]; 2.0 mM, without S9): 0.80
Increase in the number of yellow wells compared to the reference level, TA100 ([4]; 0.5 mM, + S9): 0.50
Increase in the number of yellow wells compared to the reference level, TA100 ([4]; 0.5 mM, without S9): 0.73
Increase in the number of yellow wells compared to the reference level, TA100 ([4]; 1.0 mM, + S9): 0.69
Increase in the number of yellow wells compared to the reference level, TA100 ([4]; 1.0 mM, without S9): 0.80
Increase in the number of yellow wells compared to the reference level, TA100 ([4]; 2.0 mM, + S9): 0.58
Increase in the number of yellow wells compared to the reference level, TA100 ([4]; 2.0 mM, without S9): 0.73
Increase in the number of yellow wells compared to the reference level, E. coli WP2 ([5]; 0.5 mM, + S9): 0.75
Increase in the number of yellow wells compared to the reference level, E. coli WP2 ([5]; 0.5 mM, without S9): 0.17
Increase in the number of yellow wells compared to the reference level, E. coli WP2 ([5]; 1.0 mM, + S9): 0.83
Increase in the number of yellow wells compared to the reference level, E. coli WP2 ([5]; 1.0 mM, without S9): 0.67
Increase in the number of yellow wells compared to the reference level, E. coli WP2 ([5]; 2.0 mM, + S9): 0.75
Increase in the number of yellow wells compared to the reference level, E. coli WP2 ([5]; 2.0 mM, without S9): 1.00
